{
  "source": "patent US20020151572A1",
  "about": "“PHARMACEUTICAL USES FOR NOS INHIBITORS” (priority 1998, published 2002)",
  "note": "Structures can show the parent of a compound that is named as a salt.",
  "data": [
    {"molecule": "CC(C)Oc1cc(C(O)CN2CCN(CCc3ccccc3)CC2)ccc1-c1cccc(N)n1", "note": "(stereo not shown) (as salt: hydrochloride) [Example 1, 1-[4-(6-AMINO-PYRIDIN-2-YL)-3-ISOPROPOXY-PHENYL]-2-(4-PHENETHYL-PIPERAZIN-1-YL)-ETHANOL]", "values": [
      {"measurement": "melting point", "result": "148 to 165", "unit": "°C"}
    ]}
  ]
}
